Test system: Lac161_ORF7
Experiment: glucose release, glucose oxidase/peroxidase assay
Assay type: biochemical, metagenome: corn field soil
Settings: 100 mM MES pH 6.0, 50 °C (methods print Lac161_ORF3 for this temperature), 30 min

A Km of 1800 µM was found for OC[C@H]1O[C@@H](O[C@H]2[C@H](O)[C@@H](O)C(O)O[C@@H]2CO)[C@H](O)[C@@H](O)[C@H]1O (stereo partly shown) [lactose] in this work.

— publication PMC5342196 (PLoS ONE, 2017)
